According to patent US20250154611A1, “SYSTEMS AND METHODS TO DETECT STEM CELL STRESS AND USES THEREOF” (Wayne State University, priority 2014, published 2025):

Experiments:
[1] = system: mESCs; test: RT-qPCR of lineage markers Dab2, Lrp2, Fgf5 in mESC monolayer; format: cell-based, mouse; settings: 24 hr
From the text: FIGS. 16A-16E. Hyperosmotic stress in mESCs impacts transcription factor expression at protein and mRNA levels. (FIG. 16A) The inner cell mass (ICM) of the blastocyst coexpresses Oct4/Rex1/Nanog in pluripotent cells at E3.5. After E3.5 a Rex1 subpopulation delaminates from the ICM and expresses primitive endoderm (PrEndo) marker, Lrp2, at E3.5 and extraembryonic endoderm (ExEndo) marker, Dab2, at E4.5. At E4.75, Rex1 decreases in the remaining cells of the ICM and, by E5.5, fibroblast growth factor (FGF)5 is expressed in embryonic ectoderm (EmEcto). […] (FIG. 16C) Total RNA was isolated and subjected to reverse transcription to form complementary DNA (cDNA). Real-time quantitative PCR (RTqPCR) was performed with Oct4, Nanog, and Rex1 primers. Histograms represent relative fold change in mRNA expression using the ddCt method. (FIG. 16D) mESCs in monolayer were incubated±sorbitol and ±LIF for 24 hr. Dab2, Lrp2, and Fgf5 mRNA transcript levels were examined by RT-qPCR. […] Error flags are the standard error of the mean (n=3). “a” indicates significant difference for sorbitol +LIF compared with LIF− at 24 hr. […]
RT-qPCR analysis. mESCs were trypsinized and harvested for RT-Qpcr analysis using a 7500 Fast Real Time PCR System (Applied Biosystems). […] RNA content was measured using ND-1000 Spectrophotometer (NanoDrop and ThermoScientific, Wilmington, DE). Complementary DNA (cDNA) was synthesized from 50 to 100 ng of total RNA using QuantiTect Reverse Transcription Kit (Qiagen) according to the manufacturer's instructions, and diluted 1:5. […]
Primer pairs were checked for specificity using BLAST analysis and were checked by both agarose gel electrophoresis and thermal dissociation curves to ensure amplification of a single product, and to rule out formation of primer dimers during the RT-qPCR. […] The expression of the target genes was quantified against that of two internal reference genes, glyceraldehyde-3-phosphate dehydrogenase (GAPDH) and 18s ribosomal RNA subunit (18s rRNA). […] Fold change was determined using the ddCt method. […]

[2] = system: Rex1; test: Immunoblot of endogenous Rex1 protein in Rex1-RFP ESCs; format: cell-based, mouse; settings: 3 days
Experimental: FIG. 27. Rex1 promoter RFP have a stress dose-dependent loss of endogenous Rex1 protein corresponding to dose-dependent loss of Rex1 activity shown in FIG. 24. (A) Rex1-RFP mESCs expressing cultured until 30% confluent, treated with 0 mM, 200-300 mM sorbitol in 25 mM increments for 3 days (as in FIG. 24), lysed, size fractionated by SDS-PAGE, blotted, probed for Rex1 and ACTB proteins and analyzed for changes compared to time zero and for stress dose responses. The histogram bars are derived from three independent experiments, one of which is shown in the top panel of FIG. 27, shown are X+/−s.e.m., n=3, (a) is P<0.01 and (b) indicates not significant. FIG. 27, bottom panel.
Immunoblot. After treatment, the ESCs were rinsed with PBS, lysed with RIPA buffer supplemented with protease inhibitors and sonicated briefly. Total protein concentration was determined using Pierce BCA protein assay reagent admixed with Laemmli sample buffer, and boiled for 5 min. Equal total protein amounts from the lysates were size-fractionated by 5-20% gradient SDS-PAGE and transferred onto nitrocellulose membrane. Rex1 […] signals were detected using ECL reagent with X-ray films and quantified using ImageJ 1.48v software (NIH, USA).
Finally it was tested whether endogenous Rex1 protein levels decreased commensurately with decreases in Rex1-RFP activity levels assayed in FIG. 24. Rex1-RFP ESCs were cultured for 3 days with 0-300 mM sorbitol and assayed by immunoblot for endogenous Rex1 levels normalized to ACTB loading controls and with time zero unstressed Rex1 set to 100 as a baseline level. Whereas stress-induced decrease in Rex1 activity in FIG. 24 were 20% and 70% at 200 mM and 300 mM sorbitol, respectively endogenous Rex1 protein losses were 30% and 70% at 200 mM and 300 mM, respectively (FIG. 27). Through the series from 200 mM to 300 mM sorbitol there was generally good agreement between activity level and endogenous protein level for Rex1 at 3 days of stress and with Rex1 protein loss at 1 day (Example 2). […]

[3] = 200 mM +LIF, vs time-matched +LIF and -LIF controls

In the case of `OC[C@@H](O)[C@@H](O)[C@H](O)[C@@H](O)CO` [sorbitol], the “Dab2 mRNA expression” value [1, 3] is reported as “significantly higher”, the “Lrp2 mRNA expression” value [1, 3] is reported as “significantly higher” and the “upregulation of EmEcto marker Fgf5 mRNA” value ([1]; 200 mM) is reported as “suppressed”. For the same compound, the “endogenous Rex1 protein loss” value ([2]; 200 mM) was 30%, the “endogenous Rex1 protein loss” value ([2]; 300 mM) was 70% and the “endogenous Rex1 protein” value ([2]; 225-300 mM, not at 200 mM) was “significantly lower”.
